The source of these data is paper PMC6071567 (Cold Spring Harbor Molecular Case Studies, 2018).

“Also recorded” adds a separate entry of the source. Read-outs that look alike come from different tables or passages of the source.

The test system of one assay is CLB-GE. The experiment in a line: Cell viability by resazurin assay, 72 h. The format is cell-based. As to conditions: Homo sapiens.
The next assay relates to CLB-BAR. In words: Cell viability by resazurin assay, 72 h. In kind it is cell-based. As to conditions: Homo sapiens.
The next assay deals with KELLY. The experiment in a line: Cell viability by resazurin assay, 72 h. In kind it is cell-based, human. As to conditions: ALK F1174L, amplified, MYCN amplified.
The subject of the next assay is CLB-GAR. The experiment in a line: Cell viability by resazurin assay, 72 h. In kind it is cell-based, human. As to conditions: ALK R1275Q, MYCN nonamplified.
The next assay concerns IMR32. The experiment in a line: Cell viability by resazurin assay, 72 h. As to conditions: ALK wt, MYCN amplified. In kind it is cell-based, human.
In another assay the test system is SK-N-BE. In words: Cell viability by resazurin assay, 72 h. In kind it is cell-based. As to conditions: Homo sapiens.
The next assay deals with SK-N-DZ. In words: Cell viability by resazurin assay, 72 h. In kind it is cell-based. As to conditions: Homo sapiens.
The next assay has as its system SK-N-AS. The experiment in a line: Cell viability by resazurin assay, 72 h. In kind it is cell-based. As to conditions: Homo sapiens.
A further assay has as its system CLB-PE. In words: Cell viability by resazurin assay, 72 h. As to conditions: Homo sapiens. In kind it is cell-based.
Assay [1] deals with ALK-I1171T metastatic neuroblastoma. The format is in vivo, human. As to conditions: for Primary tumor volume (MRI): ∼18.8 mL immediately before start.

For `Cc1cc(Nc2ncc(Cl)c(Nc3ccccc3S(=O)(=O)C(C)C)n2)c(OC(C)C)cc1C1CCNCC1` [ceritinib, 5-chloro-N2-(2-isopropoxy-5-methyl-4-(piperidin-4-yl)phenyl)-N4-(2-(isopropylsulfonyl)phenyl)pyrimidine-2,4-diamine], the half-inhibitory concentration (IC50) in the assay with CLB-GE was 131 ± 24 nM; in the assay on CLB-BAR, 36.1 ± 6.2 nM; in the assay on KELLY, 329 ± 36 nM; in the assay on KELLY (Homo sapiens, Kelly), roughly 330 nM; with CLB-GAR, 102 ± 16 nM; with CLB-GAR (Homo sapiens) it was roughly 110 nM. For the same compound, the 50% inhibitory concentration (IC50) in the assay on IMR32 is greater than 500 nM; with IMR32 (Homo sapiens, IMR-32, 72 h), greater than 350 nM; in the assay on SK-N-BE, greater than 1500 nM; in the assay on SK-N-DZ it was greater than 800 nM; with SK-N-AS, greater than 3000 nM; in the assay on CLB-PE it was greater than 15000 nM. Further, the “Clinical evaluation (CT, MRI, MIBG scintigraphy)” value in assay [1] (21 mo after initiation of ceritinib, 1 yr after surgery) was “complete remission at all metastatic sites; also recorded: no residual tumor in the abdomen and complete resolution of metastases at all sites”. Besides, the “Primary tumor volume (MRI)” value in assay [1] (after 3 mo therapy) is roughly 13.8 mL; in [1] (after 6 mo therapy, prior to surgery), roughly 10.6 mL. For the same compound, the “Decrease in size of primary tumor (MRI, volumetric)” value in [1] (after 6.5 mo of ceritinib treatment) was −43.6%. Besides, the Clinical status entry in assay [1] (after 34 mo of continuous ceritinib treatment) was “continuous complete remission”. Moreover, in assay [1] (after the first 4-wk cycle, 450 mg/m^2 once daily), the Urinary catecholamines entry is given as “decreased to levels below the upper reference limit”. Besides, the “Ki-67 positivity of resected tumor” value in assay [1] (tumor removed at 7.5 mo of treatment, 27% before treatment) was 5%.

Turning to `C[C@@H](Oc1cc(-c2cnn(C3CCNCC3)c2)cnc1N)c1c(Cl)ccc(F)c1Cl` [crizotinib], the IC50 was 234 ± 18 nM in the assay on CLB-GE; 54.9 ± 20 nM with CLB-BAR; 333 ± 78 nM in the assay on KELLY; roughly 330 nM with KELLY (Homo sapiens, Kelly); 349 ± 45 nM with IMR32; greater than 350 nM in the assay on IMR32 (Homo sapiens, IMR-32, 72 h). Further, the concentration for half-maximal inhibition (IC50) in the assay on SK-N-BE is greater than 1000 nM; with SK-N-DZ it was greater than 4000 nM; in the assay with SK-N-AS, 353 ± 27 nM; in the assay with CLB-PE it was greater than 4000 nM.
